Measurements reported in patent US8791118B2, “Pyridopyrazines as highly selective ras-Raf-Mek-Erk signal transduction pathway inhibitors” (Aeterna Zentaris GmbH, priority 2011, dated 2014).
Counter-ions that a name gives are not always drawn.

System: not given
Test: not given
Details: not given

Row | Compound | melting point
1 | COc1ncccc1-c1cnc2ccc(NC(=O)N[C@H](C)CCCc3ccccc3)nc2n1 [Compound 161, 1-[3-(2-Methoxy-pyridin-3-yl)-pyrido[2,3-b]pyrazin-6-yl]-3-((R)-1-methyl-4-phenyl-butyl)-urea] | 161 to 163 °C
2 | O=C(NCCCCc1ccccc1)Nc1ccc2ncc(N3CCCC3)nc2n1 [Compound 172, 1-(4-Phenyl-butyl)-3-(3-pyrrolidin-1-yl-pyrido[2,3-b]pyrazin-6-yl)-urea] | 204 to 206 °C
3 | C[C@H](CCCc1ccccc1)NC(=O)Nc1ccc2ncc(-c3cccc(C(=O)O)c3)nc2n1 [Compound 196, 3-{6-[3-((R)-1-Methyl-4-phenyl-butyl)-ureido]-pyrido[2,3-b]pyrazin-3-yl}-benzoic acid] | 261 °C (dec.)
4 | O=C(NCCCCc1ccccc1)Nc1ccc2ncc(-c3ccncc3)nc2n1 [Compound 184, 1-(4-Phenyl-butyl)-3-(3-pyridin-4-yl-pyrido[2,3-b]pyrazin-6-yl)-urea] | 219 to 222 °C
5 | C[C@H](CCCc1ccccc1)NC(=O)Nc1ccc2ncc(N3CCN(C)CC3)nc2n1 [Compound 153, 1-((R)-1-Methyl-4-phenyl-butyl)-3-[3-(4-methyl-piperazin-1-yl)-pyrido[2,3-b]pyrazin-6-yl]-urea] | 172 to 175 °C
6 | CCOC(=O)Oc1ccc(-c2cnc3ccc(NC(=O)NCCCCc4ccccc4)nc3n2)cc1 [Compound 132, Carbonic acid ethyl ester 4-{6-[3-(4-phenyl-butyl)-ureido]-pyrido[2,3-b]pyrazin-3-yl}-phenyl ester] | 212 °C
7 | CCNC(=O)Oc1ccc(-c2cnc3ccc(NC(=O)NCCCCc4ccccc4)nc3n2)cc1 | 198 °C
8 | O=C(NCCCCc1ccccc1)Nc1ccc2ncc(-c3ccc4nc[nH]c4c3)nc2n1 [Compound 94, 1-[3-(3H-Benzoimidazol-5-yl)-pyrido[2,3-b]pyrazin-6-yl]-3-(4-phenyl-butyl)-urea] | 226 °C
9 | Nc1cccc(-c2cnc3ccc(NC(=O)NCCCCc4ccccc4)nc3n2)c1 [Compound 95, 1-[3-(3-Amino-phenyl)-pyrido[2,3-b]pyrazin-6-yl]-3-(4-phenyl-butyl)-urea] | 200 to 203 °C
10 | C[C@H](CCCc1ccccc1)NC(=O)Nc1ccc2ncc(-c3cccnc3)nc2n1 [Compound 150, 1-((R)-1-Methyl-4-phenyl-butyl)-3-(3-pyridin-3-yl-pyrido[2,3-b]pyrazin-6-yl)-urea] | 218 to 220 °C
11 | CSc1ccc(-c2cnc3ccc(NC(=O)NCCCCc4ccccc4)nc3n2)cc1 [Compound 137, 1-[3-(4-Methylsulfanyl-phenyl)-pyrido[2,3-b]pyrazin-6-yl]-3-(4-phenyl-butyl)-urea] | 227 to 230 °C
12 | Cc1ccc(CCCCNC(=O)Nc2ccc3ncc(-c4cnn(C)c4)nc3n2)cc1 [Compound 97, 1-[3-(1-Methyl-1H-pyrazol-4-yl)-pyrido[2,3-b]pyrazin-6-yl]-3-(4-p-tolyl-butyl)-urea] | 202 to 204 °C
13 | CCCn1cc(-c2cnc3ccc(NC(=O)NCCCC(=O)c4ccccc4)nc3n2)cn1 [Compound 131, 1-(4-Oxo-4-phenyl-butyl)-3-[3-(1-propyl-1H-pyrazol-4-yl)-pyrido[2,3-b]pyrazin-6-yl]-urea] | 210 to 211 °C
14 | C[C@H](CCCc1ccccc1)NC(=O)Nc1ccc2ncc(-c3ccc(O)c(Cl)c3)nc2n1 [Compound 129, 1-[3-(3-Chloro-4-hydroxy-phenyl)-pyrido[2,3-b]pyrazin-6-yl]-3-((R)-1-methyl-4-phenyl-butyl)-urea] | 225 to 228 °C
15 | Cl.O=C(NCCCCc1ccccc1)Nc1ccc2ncc(N3CCNCC3)nc2n1 | 209 to 211 °C
16 | COc1ccc(-c2cnc3ccc(NC(=O)NCCCCc4ccccc4)nc3n2)cc1 [Compound 118, 1-[3-(4-Methoxy-phenyl)-pyrido[2,3-b]pyrazin-6-yl]-3-(4-phenyl-butyl)-urea] | 200 to 203 °C
17 | C[C@H](CCCc1ccccc1)NC(=O)Nc1ccc2ncc(-c3ccc(O)c(F)c3)nc2n1 [Compound 185, 1-[3-(3-Fluoro-4-hydroxy-phenyl)-pyrido[2,3-b]pyrazin-6-yl]-3-((R)-1-methyl-4-phenyl-butyl)-urea] | 220 to 222 °C
18 | COc1ccccc1-c1cnc2ccc(NC(=O)NCCCCc3ccccc3)nc2n1 [Compound 124, 1-[3-(2-Methoxy-phenyl)-pyrido[2,3-b]pyrazin-6-yl]-3-(4-phenyl-butyl)-urea] | 173 to 177 °C
19 | Cn1cc(-c2cnc3ccc(NC(=O)NCC4CCc5ccccc5C4)nc3n2)cn1 (stereo not drawn) [Compound 111, 1-[3-(1-Methyl-1H-pyrazol-4-yl)-pyrido[2,3-b]pyrazin-6-yl]-3-(1,2,3,4-tetrahydro-naphthalen-2-ylmethyl)-urea] | 230 to 233 °C
20 | Nc1ccccc1-c1cnc2ccc(NC(=O)NCCCCc3ccccc3)nc2n1 [Compound 130, 1-[3-(2-Amino-phenyl)-pyrido[2,3-b]pyrazin-6-yl]-3-(4-phenyl-butyl)-urea] | 190 to 191 °C
21 | Cn1cc(-c2cnc3ccc(NC(=O)NCCCCc4ccc(F)cc4)nc3n2)cn1 [Compound 99, 1-[4-(4-Fluoro-phenyl)-butyl]-3-[3-(1-methyl-1H-pyrazol-4-yl)-pyrido[2,3-b]pyrazin-6-yl]-urea] | 197 to 200 °C
22 | O=C(NCCCCc1ccccc1)Nc1ccc2ncc(-c3ccc(O)c(Br)c3)nc2n1 [Compound 109, 1-[3-(3-Bromo-4-hydroxy-phenyl)-pyrido[2,3-b]pyrazin-6-yl]-3-(4-phenyl-butyl)-urea] | 238 to 241 °C
23 | C[C@H](CCCc1ccccc1)NC(=O)Nc1ccc2ncc(N3CCCCC3)nc2n1 [Compound 154, 1-((R)-1-Methyl-4-phenyl-butyl)-3-(3-piperidin-1-yl-pyrido[2,3-b]pyrazin-6-yl)-urea] | 171 to 174 °C
24 | COc1ccc(-c2cnc3ccc(NC(=O)NCCCCc4ccccc4)nc3n2)cc1S(=O)(=O)N1CCOCC1 [Compound 145, 1-{3-[4-Methoxy-3-(morpholine-4-sulfonyl)-phenyl]-pyrido[2,3-b]pyrazin-6-yl}-3-(4-phenyl-butyl)-urea] | 256 to 258 °C
25 | O=C(NCCCCc1ccccc1)Nc1ccc2ncc(-c3ccc(F)cc3O)nc2n1 [Compound 144, 1-[3-(4-Fluoro-2-hydroxy-phenyl)-pyrido[2,3-b]pyrazin-6-yl]-3-(4-phenyl-butyl)-urea] | 248 to 249 °C

Target: Erk2 (Homo sapiens, UniProt P28482)
Test: Erk2 alpha kinase assay (cell-free, ALPHA technology)
Type: biochemical
Details: 10 μM ATP
Protocol: The inhibitory effect of the compounds according to the invention was tested on various serine/threonine, tyrosine and lipid kinases in enzymatic assays. Recombinant human kinases such as, for example, Erk2, were used in this case, partly as full-length kinases, partly as shortened fragments, but at least consisting of the functional kinase domains. The commercial kinase proteins (Proqinase, Upstate) were used as recombinant fusion proteins with GST (glutathion-S-transferase) or His-Tag. Depending on the type of substrate, the various kinase reactions were quantified by means of suitable ALPHA™ beads (Perkin-Elmer). The substance testing is described in detail hereinafter for the Erk assay. […] a) MAPK-ALPHAs (e.g. […] The fluorescence was detected the following morning in a Envision plate reader (Perkin-Elmer). The %-inhibition values per substance concentration were calculated by means of the following formula from the raw data determined in the Envision plate reader[…]: Eight determinations were made for each control and two for the substance samples. […] The IC50 values were determined using GraphPadPrism.

Erk2, sequence (P28482 2-360 limits assumed): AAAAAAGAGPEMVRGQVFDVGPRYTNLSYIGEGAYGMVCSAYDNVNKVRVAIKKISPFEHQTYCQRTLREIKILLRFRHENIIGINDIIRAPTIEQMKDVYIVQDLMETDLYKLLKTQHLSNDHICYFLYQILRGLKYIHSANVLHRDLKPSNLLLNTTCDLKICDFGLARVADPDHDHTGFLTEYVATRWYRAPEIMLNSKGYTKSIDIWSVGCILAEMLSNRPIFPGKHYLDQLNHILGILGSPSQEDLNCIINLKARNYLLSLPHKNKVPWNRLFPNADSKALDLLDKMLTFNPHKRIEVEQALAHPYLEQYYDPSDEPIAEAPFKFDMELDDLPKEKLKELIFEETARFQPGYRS

Row | Compound | IC50 [nM]
26 | COc1ncccc1-c1cnc2ccc(NC(=O)N[C@H](C)CCCc3ccccc3)nc2n1 [Compound 161, 1-[3-(2-Methoxy-pyridin-3-yl)-pyrido[2,3-b]pyrazin-6-yl]-3-((R)-1-methyl-4-phenyl-butyl)-urea] | 2
27 | O=C(NCCCCc1ccccc1)Nc1ccc2ncc(N3CCCC3)nc2n1 [Compound 172, 1-(4-Phenyl-butyl)-3-(3-pyrrolidin-1-yl-pyrido[2,3-b]pyrazin-6-yl)-urea] | 5
28 | O=C(NCCCCc1ccccc1)Nc1ccc2ncc(-c3ccc(OCCN4CCOCC4)cc3)nc2n1 [Compound 202, 1-{3-[4-(2-Morpholin-4-yl-ethoxy)-phenyl]-pyrido[2,3-b]pyrazin-6-yl}-3-(4-phenyl-butyl)-urea] | 41
29 | C[C@H](CCCc1ccccc1)NC(=O)Nc1ccc2ncc(-c3cccc(C(=O)O)c3)nc2n1 [Compound 196, 3-{6-[3-((R)-1-Methyl-4-phenyl-butyl)-ureido]-pyrido[2,3-b]pyrazin-3-yl}-benzoic acid] | 4
30 | C[C@H](CCCc1ccccc1)NC(=O)Nc1ccc2ncc(-c3ccc(C[C@H](N)C(=O)O)cc3)nc2n1 [Compound 195, (S)-2-Amino-3-(4-{6-[3-((R)-1-methyl-4-phenyl-butyl)-ureido]-pyrido[2,3-b]pyrazin-3-yl}-phenyl)-propionic acid; hydrochloride] | 1
31 | O=C(NCCCCc1ccccc1)Nc1ccc2ncc(-c3cnn(CCCO)c3)nc2n1 [Compound 162, 1-{3-[1-(3-Hydroxy-propyl)-1H-pyrazol-4-yl]-pyrido[2,3-b]pyrazin-6-yl}-3-(4-phenyl-butyl)-urea] | 2
32 | O=C(NCCCCc1ccccc1)Nc1ccc2ncc(-c3cccc(CO)c3)nc2n1 [Compound 175, 1-[3-(3-Hydroxymethyl-phenyl)-pyrido[2,3-b]pyrazin-6-yl]-3-(4-phenyl-butyl)-urea] | 6
33 | C[C@H](CCCc1ccccc1)NC(=O)Nc1ccc2ncc(-c3cnn(C)c3)nc2n1 [Compound 180, 1-((R)-1-Methyl-4-phenyl-butyl)-3-[3-(1-methyl-1H-pyrazol-4-yl)-pyrido[2,3-b]pyrazin-6-yl]urea] | 6
34 | COCc1cccc(-c2cnc3ccc(NC(=O)N[C@H](C)CCCc4ccccc4)nc3n2)c1 [Compound 203, 1-[3-(3-Methoxymethyl-phenyl)-pyrido[2,3-b]pyrazin-6-yl]-3-((R)-1-methyl-4-phenyl-butyl)-urea] | 24
35 | O=C(NCCCCc1ccccc1)Nc1ccc2ncc(-c3cnn(CCO)c3)nc2n1 [Compound 189, 1-{3-[1-(2-Hydroxy-ethyl)-1H-pyrazol-4-yl]-pyrido[2,3-b]pyrazin-6-yl}-3-(4-phenyl-butyl)-urea] | 4
36 | O=C(NCCCCc1ccccc1)Nc1ccc2ncc(-c3ccc(O)c(F)c3)nc2n1 [Compound 174, 1-[3-(3-Fluoro-4-hydroxy-phenyl)-pyrido[2,3-b]-pyrazin-6-yl]-3-(4-phenyl-butyl)-urea] | 6
37 | C[C@H](CCCc1ccccc1)NC(=O)Nc1ccc2ncc(-c3cccc(CO)c3)nc2n1 [Compound 181, 1-[3-(3-Hydroxymethyl-phenyl)-pyrido[2,3-b]pyrazin-6-yl]-3-((R)-1-methyl-4-phenyl-butyl)-urea] | 6
38 | COc1cc(-c2cnc3ccc(NC(=O)NCCCCc4ccccc4)nc3n2)ccc1C(=O)O [Compound 194, 2-Methoxy-4-{6-[3-(4-phenyl-butyl)-ureido]-pyrido[2,3-b]pyrazin-3-yl}-benzoic acid] | 1
39 | O=C(NCCCCc1ccccc1)Nc1ccc2ncc(-c3cnn(CCN4CCOCC4)c3)nc2n1 [Compound 127, 1-{3-[1-(2-Morpholin-4-yl-ethyl)-1H-pyrazol-4-yl]-pyrido[2,3-b]pyrazin-6-yl}-3-(4-phenyl-butyl)-urea] | 5
